# Assay results taken from patent publication US8962660B2 (Bristol-Myers Squibb Company, priority 2013, dated 2015).
# Target: T1, human GPR120 (Homo sapiens, UniProt Q5NUL3)
# T1 construct: expressed in transfected cells; host or cells: CHOA12 cells
# T1 sequence (Q5NUL3 1-361): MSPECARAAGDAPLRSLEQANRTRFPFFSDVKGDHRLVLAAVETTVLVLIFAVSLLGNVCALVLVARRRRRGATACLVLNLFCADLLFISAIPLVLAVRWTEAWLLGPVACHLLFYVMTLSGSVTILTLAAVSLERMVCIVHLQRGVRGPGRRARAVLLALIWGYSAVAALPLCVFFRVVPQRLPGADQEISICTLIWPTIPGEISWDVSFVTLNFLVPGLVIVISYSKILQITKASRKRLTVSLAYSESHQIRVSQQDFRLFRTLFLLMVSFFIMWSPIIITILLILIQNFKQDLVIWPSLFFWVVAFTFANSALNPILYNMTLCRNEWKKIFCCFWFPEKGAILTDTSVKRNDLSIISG
# Experiment: GPR120 pERK AlphaScreen SureFire assay (human)
# Type: cell-based
# Settings: CHO cells stably transfected with short form of human GPR120
# Excerpt: GPR120 activity was monitored by measuring phosphorylation of ERK (pERK), since G protein receptors are known to activate the ERK signaling cascade either directly and/or through recruitment of arrestin that serves as a scaffold for downstream signaling events.
# GPR120 pERK AlphaScreen SureFire Assay
# The human and mouse GPR120-mediated intracellular phosphorylated ERK assays were established using CHOA12 cells stably transfected with the short form of human or mouse GPR120 receptor. Cells were cultured in growth medium consisting of F-12 media (Invitrogen Cat. #11765) with 5% Charcoal/Dextran FBS (Invitrogen Cat. #12676-029), 500 μg/mL GENETICIN® (Life Technologies Cat. #10131-027) and 250 μg/mL Zeocin (Invitrogen Cat. #R250-01). Cells were cryo preserved at a concentration of 2×10^7 cells/mL, in 90% Charcoal/Dextran FBS and 10% DMSO, and frozen in liquid nitrogen at a low passage number.
# For the pERK assay, 2×10^7 cells/mL cryopreserved human and mouse cells were thawed rapidly in a 37° C. water bath and added to a T-225 flask containing 50 mL growth medium. The flasks were placed in a tissue culture incubator overnight (37° C., 5% CO2). The next day, cells were harvested with trypsin (Gibco Cat. #25300-054), resuspended in serum-containing growth medium and counted using a Cellometer and volume adjusted to a concentration of 0.6×10^6cells/mL. Cells were plated into 384-well clear bottom tissue culture plates (BD Cat. #353962) at 50 μL/well, for a density of 30,000 cells/well using a MULTIDROP® and incubated for 16-18 hours (overnight) at 37° C. with 5% CO2. The next day, cells were serum starved in 30 μL of F-12 media without any serum or antibiotics for 2 hours at 37° C.
# Test compounds were 3-fold, 11-point serially diluted in DMSO in a REMP assay plate (Matrix Cat. #4307) by Tecan and 5 μL was transferred into an ECHO source plate (LABCYTE® Cat. #LC-0200). Cells were then stimulated with 50 nL of compound dilutions using ECHO liquid handler for 7 minutes at 37° C. Compounds ranged from final assay concentrations of 33.33 μM to 0.56 nM.
# The media was then dumped and cells lysed with 20 μL of 1× Lysis buffer from the AlphaScreen SureFire Phospho-ERK 1/2 Kit (Perkin Elmer Cat. #6760617M). The lysis buffer was diluted 5-fold with water before use. The plate was agitated on a shaker for 10 minutes after which 2 μL was transferred into a 384-well white proxiplate (Perkin Elmer Cat. #6008289). The SureFire assay reagent mix was prepared by mixing 60 parts Reaction Buffer, 10 parts Activation Buffer, 1 part Donor Beads, 1 part Acceptor Beads (Perkin Elmer Cat. #TGRES10K). 3.5 μL/well of this reagent mix was manually added to the proxiplate with a multichannel pipettor. Plates were spun down at 1000 rpm for 2 minutes, followed by light-protected incubation at room temperature for 2 hours. The plates were read on the Alpha-technology compatible Envision multilabel plate reader using AlphaScreen protocol according to manufacturer's specifications. The agonist effect of compounds was expressed as 100×(average sample−average blank)/(average total−average blank) where sample is the luminescence activity in the presence of test compound, blank is equal to the luminescence activity in the presence of DMSO control and the total is signal induced by 50 μM linolenic acid as reference compound. Activation data for the test compound over a range of concentrations was plotted as percentage activation of the test compound (100%=maximum response). After correcting for background, EC50 values were determined The EC50 is defined as the concentration of test compound which produces 50% of the maximal response and was quantified using the 4 parameter logistic equation to fit the data.
# The human and mouse GPR120-mediated intracellular phosphorylated ERK assays were also established using CHO-K1 cells stably transfected with the short form of human or mouse GPR120 receptor. […]
row,EC50,SMILES
1,490 nM,"O=C(O)[C@@H]1C[C@H]1CCC12CCC(c3cccc(Oc4cc(F)cc(F)c4)c3)(CC1)OC2 [Example 72, (1R,2R)-2-(2-(1-(3-(3,5-difluorophenoxy)phenyl)-2-oxabicyclo[2.2.2]octan-4-yl)ethyl) cyclopropanecarboxylic acid]"
2,70 nM,"O=C(O)C/C=C/CC12CCC(c3cccc(Oc4ccccc4)c3)(CC1)OC2 [Example 34, (E)-5-(1-(3-Phenoxyphenyl)-2-oxabicyclo[2.2.2]octan-4-yl)pent-3-enoic acid]"
3,3310 nM,"O=C(O)COCCC12CCC(c3cccc(C(F)(F)F)c3)(CC1)OC2 [Example 49, 2-(2-(1-(3-(Trifluoromethyl)phenyl)-2-oxabicyclo[2.2.2]octan-4-yl)ethoxy)acetic acid]"
4,380 nM,"COc1cccc(Oc2cccc(C34CCC(CCOCC(=O)O)(CC3)CO4)c2)c1 [Example 22, 2-(2-(1-(3-(3-Methoxyphenoxy)phenyl)-2-oxabicyclo[2.2.2]octan-4-yl)ethoxy)acetic acid]"
5,200 nM,"O=C(O)COCCC12CCC(c3cccc(Oc4ccc(F)cc4)c3)(CC1)OC2 [Example 39, 2-(2-(1-(3-(4-fluorophenoxy)phenyl)-2-oxabicyclo[2.2.2]octan-4-yl)ethoxy) acetic acid]"
6,1900 nM,"COC(CCC12CCC(c3cccc(Oc4ccccc4)c3)(CC1)OC2)CC(=O)O (centres unmarked) [Example 33, 3-Methoxy-5-(1-(3-phenoxyphenyl)-2-oxabicyclo[2.2.2]octan-4-yl)pentanoic acid]"
7,550 nM,"Cc1cccc(Oc2cccc(C34CCC(CCOCC(=O)O)(CC3)CO4)c2)c1 [Example 43, 2-(2-(1-(3-(m-tolyloxy)phenyl)-2-oxabicyclo [2.2.2]octan-4-yl)ethoxy)acetic acid]"
8,170 nM,"CS(=O)(=O)NC(=O)CCCCC12CCC(c3cccc(Oc4ccccc4)c3)(CC1)OC2 [Example 26, N-(Methylsulfonyl)-5-(1-(3-phenoxyphenyl)-2-oxabicyclo[2.2.2]octan-4-yl)pentanamide]"
9,980 nM,"O=C(O)COCCCC12CCC(c3cccc(Oc4ccccc4)c3)(CC1)OC2 [Example 12, 2-(3-(1-(3-Phenoxyphenyl)-2-oxabicyclo[2.2.2]octan-4-yl)propoxy)acetic acid]"
10,570 nM,"OC[C@H](O)CCCC12CCC(c3cccc(Oc4ccccc4)c3)(CC1)OC2 (single isomer, unassigned) [Example 60, R-5-(1-(3-phenoxyphenyl)-2-oxabicyclo[2.2.2]octan-4-yl)pentane-1,2-diol]"
11,540 nM,"O=C(O)[C@@H]1C[C@H]1CCC12CCC(c3cccc(Oc4ccc(F)c(F)c4)c3)(CC1)OC2 [Example 73, (1R,2R)-2-(2-(1-(3-(3,4-difluorophenoxy)phenyl)-2-oxabicyclo[2.2.2]octan-4-yl)ethyl) cyclopropanecarboxylic acid]"
12,100 nM,"O=C(O)/C=C/CCC12CCC(c3cccc(Oc4ccccc4)c3)(CC1)OC2 [Example 11, (E)-5-(1-(3-Phenoxyphenyl)-2-oxabicyclo[2.2.2]octan-4-yl)pent-2-enoic acid]"
13,200 nM,"COc1cccc(C23CCC(CCCCC(=O)O)(CC2)CO3)c1 [Example 3, 5-(1-(3-Methoxyphenyl)-2-oxabicyclo[2.2.2]octan-4-yl)pentanoic acid]"
14,60 nM,O=C(O)CCCCC12CCC(c3cccc(Oc4ccccc4)c3)(CC1)OC2 [Example 2]
15,450 nM,"O=C(O)COCCC12CCC(c3cccc(Oc4cccc(Cl)c4)c3)(CC1)OC2 [Example 44, 2-(2-(1-(3-(3-chlorophenoxy)phenyl)-2-oxabicyclo[2.2.2]octan-4-yl)ethoxy) acetic acid]"
16,2530 nM,"O=C(O)[C@@H]1C[C@H]1CCC12CCC(c3cccc(Oc4ccc(O)cc4)c3)(CC1)OC2 [Example 74, (1R,2R)-2-(2-(1-(3-(4-hydroxy-phenoxy)phenyl)-2-oxabicyclo[2.2.2]octan-4-yl)ethyl)cyclo-propanecarboxylic acid]"
17,640 nM,"O=C(O)CCCCC12CCC(c3cccc(OC4CCCCO4)c3)(CC1)OC2 (centres unmarked) [Example 10, 5-(1-(3-(Tetrahydro-2H-pyran-2-yloxy)phenyl)-2-oxabicyclo[2.2.2]octan-4-yl)pentanoic acid]"
18,230 nM,"Cc1ccc(Oc2cccc(C34CCC(CCOCC(=O)O)(CC3)CO4)c2)cc1F [Example 77, 2-(2-(1-(3-(3-fluoro-4-methylphenoxy)phenyl)-2-oxabicyclo[2.2.2]octan-4-yl)ethoxy)acetic acid]"
19,5550 nM,"O=C(O)COCCC12CCC(c3cccc(Oc4ccccn4)c3)(CC1)CO2 [Example 109, 2-(2-(4-(3-(Pyridin-2-yloxy)phenyl)-2-oxabicyclo[2.2.2]octan-1-yl)ethoxy)acetic acid]"
20,340 nM,"O=C(O)[C@H]1C[C@@H]1COCC12CCC(c3cccc(Oc4ccccc4)c3)(CC1)OC2 (single isomer, unassigned) [Example 99]"
21,2570 nM,"N#Cc1cccc(Oc2cccc(C34CCC(CCOCC(=O)O)(CC3)CO4)c2)c1 [Example 46, 2-(2-(1-(3-(3-Cyanophenoxy)phenyl)-2-oxabicyclo[2.2.2]octan-4-yl)ethoxy)acetic acid]"
22,2730 nM,Cc1cc(Oc2cc(C34CCC(CCOCC(=O)O)(CC3)OC4)ccc2F)ccc1C#N [Example 114]
23,550 nM,"COc1ccc(Oc2cccc(C34CCC(CCOCC(=O)O)(CC3)OC4)c2)cc1F [Example 100, 2-(2-(4-(3-(3-Fluoro-4-methoxyphenoxy)phenyl)-2-oxabicyclo[2.2.2]octan-1-yl)ethoxy) acetic acid]"
24,580 nM,Cc1ccc(Oc2cccc(C34CCC(CCOCC(=O)O)(CC3)OC4)c2)cc1 [Example 106]
25,340 nM,"O=C(O)COCCC12CCC(c3ccc(F)c(Oc4ccc(F)cc4)c3)(CC1)OC2 [Example 88, 2-(2-(1-(4-fluoro-3-(4-fluorophenoxy)phenyl)-2-oxabicyclo[2.2.2]octan-4-yl)ethoxy)acetic acid]"
26,5560 nM,"Cc1ccc(Oc2cccc(C34CCC(CCOCC(=O)O)(CC3)CO4)c2)cn1 [Example 115, 2-(2-(1-(3-(6-methylpyridin-3-yloxy)phenyl)-2-oxabicyclo[2.2.2]octan-4-yl)ethoxy)acetic acid]"
27,7540 nM,"CC(C)Oc1cccc(C23CCC(CCOCC(=O)O)(CC2)CO3)c1 [Example 7, 2-(2-(1-(3-Isopropoxyphenyl)-2-oxabicyclo[2.2.2]octan-4-yl)ethoxy)acetic acid]"
28,490 nM,"Cc1cc(Oc2cccc(C34CCC(CCOCC(=O)O)(CC3)CO4)c2)ccc1F [Example 78, 2-(2-(1-(3-(4-fluoro-3-methylphenoxy)phenyl)-2-oxabicyclo[2.2.2]octan-4-yl)ethoxy)acetic acid]"
29,1890 nM,"CCc1cccc(Oc2cccc(C34CCC(CC[C@@H]5C[C@H]5C(=O)O)(CC3)CO4)c2)c1 [Example 118, (1R,2R)-2-(2-(1-(3-(3-Ethylphenoxy)phenyl)-2-oxabicyclo[2.2.2]octan-4-yl)ethyl)cyclo-propane carboxylic acid]"
